Reference: patent US20230053540A1, “TREATMENT OF LIVER INJURY” (Massachusetts Institute of Technology, priority 2019, published 2023)

Tested on: hepatocytes
Experiment: Seq-Well scRNA-Seq of hepatocytes after APAP overdose (signature scores, DEG vs untreated)
Format: in vivo, mouse
[1] = time point A24 vs untreated (UT)

Compound: CC(=O)Nc1ccc(O)cc1 [APAP, acetaminophen]
- Psme4 pct.1 (time point A24): 0.58
- Ptprf pct.1 (time point A24): 0.588
- Raf13 pct.1 (time point A24): 0.612
- Ranbp2 pct.1 (time point A24): 0.484
- Rarres2 pct.1 (time point A24): 0.83
- Rpl13 pct.1 (time point A24): 0.306
- Rplp1 pct.1 (time point A24): 0.597
- Rps9 pct.1 (time point A24): 0.519
- Rps15 pct.1 (time point A24): 0.379
- Sbno1 pct.1 (time point A24): 0.36
- Sc4mol pct.1 (time point A24): 0.5
- Sco2 pct.1 (time point A24): 0.346
- Sec31a pct.1 (time point A24): 0.462
- Selenbp1 pct.1 (time point A24): 0.563
- Sh3bgrl pct.1 (time point A24): 0.512
- Slc38a10 pct.1 (time point A24): 0.449
- Slc39a14 pct.1 (time point A24): 0.495
- Srebf1 pct.1 (time point A24): 0.439
- Srp72 pct.1 (time point A24): 0.597
- Srpr pct.1 (time point A24): 0.532
- Stat3 pct.1 (time point A24): 0.459
- Stt3b pct.1 (time point A24): 0.485
- Surf4 pct.1 (time point A24): 0.656
- Tmem243 pct.1 (time point A24): 0.407
- Tob1 pct.1 (time point A24): 0.565
- Trib1 pct.1 (time point A24): 0.455
- Trip12 pct.1 (time point A24): 0.504
- Txndc5 pct.1 (time point A24): 0.48
- Txnrd1 pct.1 (time point A24): 0.564
- Uggt1 pct.1 (time point A24): 0.385
- Uqcr11 pct.1 (time point A24): 0.769
- Vkorc1 pct.1 (time point A24): 0.38
- Xiap pct.1 (time point A24): 0.504
- Zbtb20 pct.1 (time point A24): 0.566
- Adck3 avg_logFC [1]: −0.2825
- Arhgap5 avg_logFC [1]: 0.2952
- Arhgef12 avg_logFC [1]: 0.3047
- Arl5a avg_logFC [1]: 0.2648
- Atp1a1 avg_logFC [1]: 0.27
- Atp5e avg_logFC [1]: −0.3136
- Atp5f1 avg_logFC [1]: −0.2872
- Atp6v1f avg_logFC [1]: −0.2529
- Atp11c avg_logFC [1]: 0.2605
- Atp13a3 avg_logFC [1]: 0.3037
- Azin1 avg_logFC [1]: 0.2701
- Bnip3 avg_logFC [1]: −0.2928
- Brd2 avg_logFC [1]: 0.2664
- Bzw1 avg_logFC [1]: 0.2841
- Cald1 avg_logFC [1]: 0.2589
- Caprin1 avg_logFC [1]: 0.2628
- Ces3b avg_logFC [1]: −0.2867
- Copb2 avg_logFC [1]: 0.2839
- Copz1 avg_logFC [1]: 0.2577
- Cox7b avg_logFC [1]: −0.2674
- Cpne3 avg_logFC [1]: 0.258
- Ctnnb1 avg_logFC [1]: 0.2957
- Cyp4a14 avg_logFC [1]: −0.3729
- Cyp27a1 avg_logFC [1]: −0.2516
- Ddost avg_logFC [1]: 0.2504
- Dennd5b avg_logFC [1]: 0.2935
- Deptor avg_logFC [1]: 0.2606
- Dnajb9 avg_logFC [1]: 0.2586
- Dnajb11 avg_logFC [1]: 0.3154
- Eci1 avg_logFC [1]: −0.2764
- Edem1 avg_logFC [1]: 0.2869
- Ehhadh avg_logFC [1]: −0.2505
- Eif4b avg_logFC [1]: 0.256
- Ell2 avg_logFC [1]: 0.2881
- Eprs avg_logFC [1]: 0.3013
- Erbb2ip avg_logFC [1]: 0.2797
- Erp44 avg_logFC [1]: 0.2795
- Esd avg_logFC [1]: −0.2538
- Fam120a avg_logFC [1]: 0.28
- Fasn avg_logFC [1]: 0.2914
- Fcgrt avg_logFC [1]: −0.2693
- Gch1 avg_logFC [1]: −0.2825
- Gm23935 avg_logFC [1]: 0.7213
- Gm24245 avg_logFC [1]: 0.4242
- Golga4 avg_logFC [1]: 0.2718
- Gpam avg_logFC [1]: 0.2504
- Grlf1 avg_logFC [1]: 0.295
- Gstm3 avg_logFC [1]: −0.3186
- H6pd avg_logFC [1]: 0.2614
- Id3 avg_logFC [1]: −0.3511
- Ide avg_logFC [1]: 0.2517
- Iqgap2 avg_logFC [1]: 0.2547
- Ireb2 avg_logFC [1]: 0.2657
- Jak1 avg_logFC [1]: 0.2541
- Lasp1 avg_logFC [1]: 0.253
- Lgr4 avg_logFC [1]: 0.269
- Lpin2 avg_logFC [1]: 0.2776
- Macf1 avg_logFC [1]: 0.2617
- Magt1 avg_logFC [1]: 0.2633
- Man2a1 avg_logFC [1]: 0.2833
- Mbnl1 avg_logFC [1]: 0.2502
- Met avg_logFC [1]: 0.2883
- Mt1 avg_logFC [1]: −0.3482
- Mtss1 avg_logFC [1]: 0.2876
- Nadk2 avg_logFC [1]: 0.2579
- Narf avg_logFC [1]: 0.2629
- Ndufa6 avg_logFC [1]: −0.3068
- Ndufb6 avg_logFC [1]: −0.3064
- Ndufc2 avg_logFC [1]: −0.308
- Nop10 avg_logFC [1]: −0.2649
- Nr1i3 avg_logFC [1]: −0.2821
- Nrp1 avg_logFC [1]: 0.3341
- Osbp19 avg_logFC [1]: 0.2788
- Osbpl1a avg_logFC [1]: 0.2728
- Ostc avg_logFC [1]: 0.2658
- Pik3c2a avg_logFC [1]: 0.2594
- Plin5 avg_logFC [1]: −0.2778
- Prdx4 avg_logFC [1]: −0.3074
- Prdx5 avg_logFC [1]: −0.2609
- Prkaa2 avg_logFC [1]: 0.2636
- Prox1 avg_logFC [1]: 0.2663
- Proz avg_logFC [1]: 0.2632
- Psme4 avg_logFC [1]: 0.2626
- Ptprf avg_logFC [1]: 0.3071
- Raf13 avg_logFC [1]: 0.2553
- Ranbp2 avg_logFC [1]: 0.2659
- Rarres2 avg_logFC [1]: −0.2666
- Rpl13 avg_logFC [1]: −0.2997
- Rplp1 avg_logFC [1]: −0.2866
- Rps9 avg_logFC [1]: −0.314
- Rps15 avg_logFC [1]: −0.3561
- Sbno1 avg_logFC [1]: 0.2505
- Sc4mol avg_logFC [1]: −0.2735
- Sco2 avg_logFC [1]: −0.2929
- Sec31a avg_logFC [1]: 0.263
- Selenbp1 avg_logFC [1]: −0.28
- Sh3bgrl avg_logFC [1]: 0.2513
- Slc38a10 avg_logFC [1]: 0.2855
- Slc39a14 avg_logFC [1]: 0.323
- Srebf1 avg_logFC [1]: 0.2762
- Srp72 avg_logFC [1]: 0.3107
- Srpr avg_logFC [1]: 0.3052
- Stat3 avg_logFC [1]: 0.2974
- Stt3b avg_logFC [1]: 0.3194
- Surf4 avg_logFC [1]: 0.2586
- Tmem243 avg_logFC [1]: −0.2656
- Tob1 avg_logFC [1]: 0.3129
- Trib1 avg_logFC [1]: 0.2875
- Trip12 avg_logFC [1]: 0.3283
- Txndc5 avg_logFC [1]: 0.2901
- Uggt1 avg_logFC [1]: 0.2845
- Uqcr11 avg_logFC [1]: −0.2632
- Vkorc1 avg_logFC [1]: −0.2974
- Xiap avg_logFC [1]: 0.2602
- Zbtb20 avg_logFC [1]: 0.3791
- pct.1 Acsl1 (time point A48A96): 0.977
- pct.1 Aldh3a2 (time point A48A96): 0.592
- pct.1 Atp1a1 (time point A48A96): 0.701
- pct.1 Atp5d (time point A48A96): 0.866
- pct.1 C6 (time point A48A96): 0.653
- pct.1 Ces1e (time point A48A96): 0.791
- pct.1 Ctsd (time point A48A96): 0.831
- pct.1 Cyp4a12a (time point A48A96): 0.509
- pct.1 Ech1 (time point A48A96): 0.951
- pct.1 F5 (time point A48A96): 0.881
- pct.1 F9 (time point A48A96): 0.836
- pct.1 F12 (time point A48A96): 0.922
- pct.1 Fcgrt (time point A48A96): 0.806
- pct.1 Fn1 (time point A48A96): 0.932
- pct.1 Ftl1 (time point A48A96): 0.438
- pct.1 Gabarapl1 (time point A48A96): 0.917
- pct.1 Gclm (time point A48A96): 0.893
- pct.1 Glul (time point A48A96): 0.257
- pct.1 Gm4076 (time point A48A96): 0.047
- pct.1 Gm20594 (time point A48A96): 0.222
- pct.1 Gsta2 (time point A48A96): 0.583
- pct.1 Hadha (time point A48A96): 0.895
- pct.1 Hal (time point A48A96): 0.824
- pct.1 Hgfac (time point A48A96): 0.682
- pct.1 Hsd17b4 (time point A48A96): 0.943
- pct.1 Ifitm3 (time point A48A96): 0.823
- pct.1 Inmt (time point A48A96): 0.935
- pct.1 Lpgat1 (time point A48A96): 0.747
- pct.1 Lpin1 (time point A48A96): 0.515
- pct.1 Ndufb2 (time point A48A96): 0.814
- pct.1 Park7 (time point A48A96): 0.902
- pct.1 Pck1 (time point A48A96): 0.998
- pct.1 Pipox (time point A48A96): 0.774
- pct.1 Ppp2r5a (time point A48A96): 0.803
- pct.1 Ptms (time point A48A96): 0.857
- pct.1 Rarres1 (time point A48A96): 0.327
- pct.1 Rpl32 (time point A48A96): 0.766
- pct.1 Rpl41 (time point A48A96): 0.304
- pct.1 Sardh (time point A48A96): 0.939
- pct.1 Sdhd (time point A48A96): 0.837
- pct.1 Sds (time point A48A96): 0.671
- pct.1 Sec61a1 (time point A48A96): 0.7
- pct.1 Serpina12 (time point A48A96): 0.38
- pct.1 Sfxn1 (time point A48A96): 0.702
- pct.1 Slc2a2 (time point A48A96): 0.716
- pct.1 Slc37a4 (time point A48A96): 0.717
- pct.1 Tmem106b (time point A48A96): 0.787
- pct.1 Ubb (time point A48A96): 0.465
- pct.1 Ubxn4 (time point A48A96): 0.802
- pct.1 Upb1 (time point A48A96): 0.895
- pct.1 Usmg5 (time point A48A96): 0.677
- pct.1 mmu-mir-6236 (time point A48A96): 0.859
- pct.1 mt-Atp6 (time point A48A96): 0.326
